This data set in a line: Fatty acid loading into contact lenses, by weighing the dry lens before and after soaking. It counts as physicochemical. Particulars: for Fatty acid loading / Fatty acid by weight of the dried lens: ACUVUE TruEye lens; for Fatty acid loading: soaking concentration 20 mg/mL fatty acid in ethanol; for Fatty acid by weight of the dried lens: 7.5 mg/mL fatty acid in ethanol, 24 hours at 23° C. The protocol: Two commercial silicone hydrogel contact lenses were tested: ACUVUE TruEye® (46% Water+54% Narafilcon A) and ACUVUE Oasys® (38% Water+62% Senofilcon A). TruEye® is a daily disposable contact lens while Oasys® is an approved contact lens for extended wear. The lenses were rinsed with deionized water and then air-dried before being soaked in 4 mL of 19 mg/mL, 27 mg/mL or 40 mg/mL of oleic acid in ethanol. The soaking duration was 24 hours at room temperature. Following the loading step, the contact lenses were taken out and excess fatty acid-ethanol solution was blotted out from the lens surface. Lenses were washed in deionized water for 1 hour and subsequently air-dried overnight.
The loading amount of OA was determined by weighing the dry lens before and after the fatty acid loading period as shown in FIG. 4. Oleic acid loading has a linear dependency on the concentration of the loading solutions. Furthermore, Oasys® has higher affinity for oleic acid than TruEye® at concentrations between […] and 27 mg/mL. For higher concentrations, the affinity for oleic acid is equivalent for both contact lenses. Therefore, the loading of Oleic acid into lens can be adjusted by this correlation.
1-day ACUVUE Moist® (58% Water+42% Etafi Icon A) are conventional hydrogel commercial lenses that are mostly composed of poly-2-hydroxyethyl methacrylate (pHEMA). Lenses were rinsed with PBS and then air-dried before use. Dry lenses were soaked in 4 mL of 100 mg/mL of oleic acid in a mixture of ethanol and deionized water (75/25 ethanol/water). […] Following the loading step, the contact lenses were taken out and excess fatty acid-ethanol solution was blotted out from the lens surface. Lenses were washed in PBS for 1 hour and then were air-dried overnight. The loading amount of OA was determined by weighing the dry lens before and after the fatty acid loading period.
ACUVUE TruEye® (diopter −3.5) contact lenses were rinsed with deionized. water and then air-dried overnight before use. One batch of contact lenses were soaked in 4 mL of 7.5 mg,/mL of myristic acid in ethanol. Another batch of contact lens were soaked in 4 mL of 7.5 mg/mL of stearic acid in ethanol. A third batch of lenses was used as a control (no fatty acid loading). The soaking duration was 24 hours at 23° C. Following the loading step, the contact lenses were taken out and excess fatty acid-ethanol solution was blotted out from the lens surface. Lenses were washed in deionized water for 1 hour and subsequently air-dried overnight. All contact lenses were optically transparent in the hydrated state. The wt % of fatty add retain by the contact lens was determined by recording the increase in the weight of the dried lens after the soaking and drying procedure. For both stearic and myristic acid, approximately 1.5% ±0.5% by weight of the dried lens was composed of the fatty acid.

As to `CC/C=C\C/C=C\C/C=C\CCCCCCCC(=O)O` [α-linolenic acid], the Fatty acid loading was 6.0 wt %.
On the same count and under the same terms, the same measure for `CCCCC/C=C\C/C=C\CCCCCCCC(=O)O` [linoleic acid]: 6.2 wt %.
The molecule `CCCCCCCC/C=C\CCCCCCCC(=O)O` [oleic acid] displayed a Fatty acid loading of 6.1 wt %. The “Maximum oleic acid loading” value (1-day ACUVUE Moist lens, 100 to 500 mg/mL oleic acid in 75/25 ethanol/water) came out at 2.9 wt. %.
On to `CCCCCCCCCCCCCCCCCC(=O)O` [stearic acid, Stearic Acid (Octadecanoic Acid)], for which the “Fatty acid by weight of the dried lens” value is listed as “approximately 1.5%”.
Same read-out and setting: the same measure for `CCCCCCCCCCCCCC(=O)O` [myristic acid, Myristic Acid (Tetradecanoic Acid)]: “approximately 1.5%”.

The record behind these values is patent US12648904B2, “Porous nanocomposite medical implant device” (Lynthera Corporation, priority 2020, dated 2026).
